In patent publication US12624008B2, “4-((6-oxopyrimidin-1(6H)-yl)methyl)benzoic acid as an inducer of Z A1AT secretion for treating AATD” (CENTESSA PHARMACEUTICALS (UK) LIMITED, priority 2020, dated 2026):

Tested on: Z A1AT
Assay: Z A1AT cell secretion assay using HEK-Z cells (ELISA of supernatant)
Format: cell-based, human
Settings: HEK-Z cells, 10, 33, 100 and 333 nM, 48 h, FIG. 1 y-axis in ng/ml
Description: HEK-Z cells, a human embryonic kidney cell line stably transfected with the human Z AAT gene, were plated into 96 well plates (3.0×10^5 cells/ml with 200 μl of media/well) overnight at 37° C. in a humidified atmosphere containing 5% CO2. Following incubation cells were washed with 200 μl serum-free media three times and media was replaced with treatments in quadruplicate using vehicle, 10 μM suberanilohydroxamic acid (SAHA) or 4-((6-oxopyrimidin-1(6H)-yl)methyl)benzoic acid (at concentrations of 10, 33, 100 and 333 nM) for 48 h in a 37° C. incubator in a final volume of 200 μl. At the end of the incubation step the supernatants were removed from the wells, centrifuged at 1000×g at 4° C. for 10 min and were assayed for Z A1AT levels by ELISA (Human Serpin A1/α1-antitrypsin duo set ELISA, R&D Systems, DY1268) per manufacturer's instructions.
Briefly, a 96 well plate was coated with human A1AT capture antibody overnight at room temperature (1:180 dilution from stock, 100 μl final volume/well). […] After which, 50 μl stop solution (2M H2SO4) was added and optical density (OD) of each well was read at 450 nm with 570 nm blank subtracted from each well using a microplate reader. A 4 parameter logistic curve was constructed using GraphPad Prism 8 and Z A1AT concentrations were determined in each sample by interpolation from a standard curve and multiplying by the appropriate dilution factor.

Structure (SMILES): O=C(O)c1ccc(Cn2cnccc2=O)cc1 [4-((6-oxopyrimidin-1(6H)-yl)methyl)benzoic acid]
- secretion of Z A1AT (concentration of Z A1AT in the cell supernatant): increased in a dose dependent manner
